Data as given in US8193189B2, “Quinoxaline derivatives as tyrosine kinase activity inhibitors” (Novartis AG, priority 2007, dated 2012).
pIC50: −log10 of the molar value.

Tests used:
Type in all cases: biochemical
GST-TYK2(888-1187) = target: T1, GST-TYK2(888-1187) (Homo sapiens, UniProt P29597); experiment: EPK JAK-family kinases profiling assay (Caliper mobility shift), TYK2; settings: ATP 30 μM, 40 nM kinase
T1 construct: GST-TYK2(888-1187); made in house
T1 sequence (P29597 888-1187): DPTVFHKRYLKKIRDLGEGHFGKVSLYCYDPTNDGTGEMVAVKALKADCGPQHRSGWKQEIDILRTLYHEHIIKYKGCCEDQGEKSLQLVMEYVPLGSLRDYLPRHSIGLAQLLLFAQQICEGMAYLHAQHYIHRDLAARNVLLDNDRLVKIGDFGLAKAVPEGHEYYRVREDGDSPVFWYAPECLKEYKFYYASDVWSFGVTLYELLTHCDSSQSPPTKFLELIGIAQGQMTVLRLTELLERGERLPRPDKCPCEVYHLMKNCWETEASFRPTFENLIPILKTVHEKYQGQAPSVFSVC
Description: All four kinases of the JAK-family kinases were used as purified recombinant GST-fusion proteins, containing the active kinase domains. GST-JAK1(866-1154), GST-JAK3(811-1124), and GST-TYK2(888-1187) were expressed and purified by affinity chromatography at the EPK biology unit. GST-JAK2(808-1132) was purchased from Invitrogen (Carlsbad, USA, #4288).
The kinase assays were based on the Caliper mobility shift assay using the LabChip 3000 systems. This technology is similar to capillary electrophoresis and uses charge driven separation of substrate and product in a microfluidic chip.
All kinase reactions were performed in 384 well microtiter plates in a total reaction volume of 18 μl. The assay plates were prepared with 0.1 μl per well of test compound in the appropriate test concentration, as described under the section “preparation of compound dilutions”. The reactions were started by combining 9 μl of substrate mix (consisting of peptide and ATP) with 9 μl of kinase dilution. The reactions were incubated for 60 minutes at 30° C. and stopped by adding 70 μl of stop buffer (100 mM Hepes, 5% DMSO, 0.1% Coating reagent, 10 mM EDTA, 0.015% Brij 35).
Fluorescently labeled synthetic peptides were used as substrates in all reactions. […] Specific assay conditions are described in Table 1:
The terminated reactions were transferred to the Caliper LabChip 3000 reader and the turnover of each reaction was measured by determining the substrate/product ratio.
Test compounds were dissolved in DMSO (10 mM) and transferred into 1.4 mL flat bottom or V-shaped Matrix tubes carrying a unique 2D matrix chip by individual compound hubs. The numbers of these chips were distinctively linked to the individual compound identification numbers. The stock solutions were stored at −20° C. if not used immediately. For the test procedure the vials were defrosted and identified by a scanner whereby a working sheet was generated that guided the subsequent working steps.
Compound dilutions were made in 96 well plates. This format enabled the assay of maximally 40 individual test compounds at 8 concentrations (single points) including 4 reference compounds. The dilution protocol included the production of pre-dilution plates, master plates and assay plates:
Pre-dilution plates: 96 polypropylene well plates were used as pre-dilution plates. A total of 4 pre-dilution plates were prepared including 10 test compounds each on the plate positions A1-A10, one standard compound at A11 and one DMSO control at A12. All dilution steps were done on a HamiltonSTAR robot.
Master plates: 100 μL of individual compound dilutions including standard compound and controls of the 4 “pre-dilution plates” were transferred into a 384 “master plate” including the following concentrations 1′820, 564, 182, 54.6, 18.2, 5.46, 1.82 and 0.546 μM, respectively in 90% of DMSO.
Assay plates: Identical assay plates were then prepared by pipetting 100 nL each of compound dilutions of the master plates into 384-well “assay plates”. […] The preparation of the master plates were handled by the Matrix PlateMate Plus robot and replication of assay plates by the HummingBird robot.

GST-JAK1(866-1154) = target: T2, GST-JAK1(866-1154) (Homo sapiens, UniProt P23458); experiment: EPK JAK-family kinases profiling assay (Caliper mobility shift), JAK1; settings: ATP 40 μM, 50 nM kinase
T2 construct: GST-JAK1(866-1154); made in house
Outline: (§1)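 Turnover was read as substrate/product ratio after mobility-shift capillary-like separation of each reaction, run for 60 min at 30 °C with GST-tagged kinase domain, labelled peptide and ATP, and terminated with EDTA stop buffer.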

GST-JAK2(808-1132) = target: T3, GST-JAK2(808-1132) (Homo sapiens, UniProt O60674); experiment: EPK JAK-family kinases profiling assay (Caliper mobility shift), JAK2; settings: ATP 20 μM
T3 construct: GST-JAK2(808-1132); purchased Invitrogen (Carlsbad, USA) #4288
Outline: as §1

T2 sequence (P23458 866-1154): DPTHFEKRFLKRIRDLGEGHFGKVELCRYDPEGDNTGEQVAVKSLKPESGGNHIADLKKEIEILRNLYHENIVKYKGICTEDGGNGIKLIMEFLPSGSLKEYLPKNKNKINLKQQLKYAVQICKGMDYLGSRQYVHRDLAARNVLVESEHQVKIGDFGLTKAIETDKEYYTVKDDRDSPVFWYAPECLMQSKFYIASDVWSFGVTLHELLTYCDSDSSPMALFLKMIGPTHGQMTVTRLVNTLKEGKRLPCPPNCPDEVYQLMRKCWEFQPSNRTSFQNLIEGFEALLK
T3 sequence (O60674 808-1132): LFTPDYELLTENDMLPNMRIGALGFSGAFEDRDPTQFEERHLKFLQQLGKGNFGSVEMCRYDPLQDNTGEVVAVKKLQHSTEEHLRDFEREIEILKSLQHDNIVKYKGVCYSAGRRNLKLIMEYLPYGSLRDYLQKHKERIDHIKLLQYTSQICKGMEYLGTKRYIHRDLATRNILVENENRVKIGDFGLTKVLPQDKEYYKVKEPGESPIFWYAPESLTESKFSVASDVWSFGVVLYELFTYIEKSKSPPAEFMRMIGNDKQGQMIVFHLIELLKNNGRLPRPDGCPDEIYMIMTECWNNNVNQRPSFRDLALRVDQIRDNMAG

Compound | pIC50 (GST-TYK2(888-1187)) | pIC50 (GST-JAK1(866-1154)) | pIC50 (GST-JAK2(808-1132); 1.8 nM kinase) | pIC50 (GST-JAK2(808-1132); […] kinase)
Fc1cc(-c2cccc3ncc(-c4cnn(C5CCCNC5)c4)nc23)cc(F)c1CN1CCOCC1 (racemic) [Example 160, (rac)-8-(3,5-Difluoro-4-morpholin-4-ylmethyl-phenyl)-2-(1-piperidin-3-yl-1H-pyrazol-4-yl)-quinoxaline] | 6.40 | 6.44 | 8.19 | –
COc1cc(-c2cnc3cccc(-c4ccc(CC(=O)N5CCS(=O)(=O)CC5)cc4)c3n2)cc(OC)c1OC [Example 13, 1-(1,1-Dioxido-thiomorpholin-4-yl)-2-{4-[3-(3,4,5-trimethoxy-phenyl)-quinoxalin-5-yl]-phenyl}-ethanone] | 6.63 | 7.57 | – | 8.29
CC(=O)N1CCC(n2cc(-c3cnc4cccc(-c5cc(F)c(CN6CCOCC6)c(F)c5)c4n3)cn2)CC1 [Example 121, 1-(4-{4-[8-(3,5-Difluoro-4-morpholin-4-ylmethyl-phenyl)-quinoxalin-2-yl]-pyrazol-1-yl}-piperidin-1-yl)-ethanone] | 6.64 | 6.70 | 8.42 | –
Cc1nn(C2CCNCC2)c(C)c1-c1cnc2cccc(-c3ccc(CN4CCOCC4)cc3)c2n1 [Example 156, 2-(3,5-Dimethyl-1-piperidin-4-yl-1H-pyrazol-4-yl)-8-(4-morpholin-4-ylmethyl-phenyl)-quinoxaline] | < 5.00 | < 5.00 | 6.02 | –
Cc1nn(C2CCNCC2)c(C)c1-c1cnc2cccc(-c3ccc(CN4CCS(=O)(=O)CC4)cc3)c2n1 [Example 157, 2-(3,5-Dimethyl-1-piperidin-4-yl-1H-pyrazol-4-yl)-8-[4-(1,1-dioxido-thiomorpholin-4-ylmethyl)-phenyl]-quinoxaline] | 5.19 | 5.44 | 6.85 | –
COc1ccc(-c2cnc3cccc(-c4cc(F)c(CN5CCS(=O)(=O)CC5)c(F)c4)c3n2)cc1N1CCN(C)CC1 [Example 163, 8-[4-(1,1-Dioxido-thiomorpholin-4-ylmethyl)-3,5-difluoro-phenyl]-2-[4-methoxy-3-(4-methyl-piperazin-1-yl)-phenyl]-quinoxaline] | 7.06 | 7.11 | > 8.52 | –
CN1CCN(C(=O)c2cccc(-c3cnc4cccc(-c5cc(F)c(CN6CCOCC6)c(F)c5)c4n3)c2)CC1 [Example 164, {3-[8-(3,5-Difluoro-4-morpholin-4-ylmethyl-phenyl)-quinoxalin-2-yl]-phenyl}-(4-methyl-piperazin-1-yl)-methanone] | 5.70 | 6.52 | 7.30 | –
CN1CCN(C(=O)c2cc(-c3cnc4cccc(-c5cc(F)c(CN6CCS(=O)(=O)CC6)c(F)c5)c4n3)cn2C)CC1 [Example 168, (4-{8-[4-(1,1-Dioxido-thiomorpholin-4-ylmethyl)-3,5-difluoro-phenyl]-quinoxalin-2-yl}-1-methyl-1H-pyrrol-2-yl)-(4-methyl-piperazin-1-yl)-methanone] | 7.52 | 7.80 | > 8.52 | –

The next lines start with the values.

pIC50 (GST-TYK2(888-1187)) | pIC50 (GST-JAK1(866-1154)) | pIC50 (GST-JAK2(808-1132); 1.8 nM kinase) | pIC50 (GST-JAK2(808-1132); […] kinase) | Compound
6.00 | 5.82 | 7.01 | – | Cc1cc(CN2CCOCC2)ccc1-c1cccc2ncc(-c3cnn(C4CCNCC4)c3)nc12 [Example 147, 8-(2-Methyl-4-morpholin-4-ylmethyl-phenyl)-2-(1-piperidin-4-yl-1H-pyrazol-4-yl)-quinoxaline]
5.12 | 5.47 | 7.20 | – | Cc1nn(C2CCNCC2)c(C)c1-c1cnc2cccc(-c3cc(F)c(CN4CCOCC4)c(F)c3)c2n1 [Example 155, 8-(3,5-Difluoro-4-morpholin-4-ylmethyl-phenyl)-2-(3,5-dimethyl-1-piperidin-4-yl-1H-pyrazol-4-yl)-quinoxaline]
< 5.00 | < 5.00 | 6.19 | – | Cc1cc(-c2cccc3ncc(-c4c(C)nn(C5CCNCC5)c4C)nc23)ccc1CN1CCOCC1 [Example 158, 2-(3,5-Dimethyl-1-piperidin-4-yl-1H-pyrazol-4-yl)-8-(3-methyl-4-morpholin-4-ylmethyl-phenyl)-quinoxaline]
6.32 | 6.96 | > 8.52 | – | COc1ccc(-c2cnc3cccc(-c4ccc(CN5CCS(=O)(=O)CC5)cc4)c3n2)cc1N1CCN(C)CC1 [Example 161, 8-[4-(1,1-Dioxido-thiomorpholin-4-ylmethyl)-phenyl]-2-[4-methoxy-3-(4-methyl-piperazin-1-yl)-phenyl]-quinoxaline]
6.44 | 7.16 | 8.24 | – | COc1ccc(-c2cnc3cccc(-c4cc(F)c(CN5CCOCC5)c(F)c4)c3n2)cc1N1CCN(C)CC1 [Example 162, 8-(3,5-Difluoro-4-morpholin-4-ylmethyl-phenyl)-2-[4-methoxy-3-(4-methyl-piperazin-1-yl)-phenyl]-quinoxaline]
5.92 | 6.80 | 7.13 | – | CN1CCN(C(=O)c2cccc(-c3cnc4cccc(-c5ccc(CN6CCS(=O)(=O)CC6)cc5)c4n3)c2)CC1 [Example 165, (3-{8-[4-(1,1-Dioxido-thiomorpholin-4-ylmethyl)-phenyl]-quinoxalin-2-yl}-phenyl)-(4-methyl-piperazin-1-yl)-methanone]
6.57 | 7.15 | 7.96 | – | CN1CCN(C(=O)c2cccc(-c3cnc4cccc(-c5cc(F)c(CN6CCS(=O)(=O)CC6)c(F)c5)c4n3)c2)CC1 [Example 166, (3-{8-[4-(1,1-Dioxido-thiomorpholin-4-ylmethyl)-3,5-difluoro-phenyl]-quinoxalin-2-yl}-phenyl)-(4-methyl-piperazin-1-yl)-methanone]
6.74 | 7.28 | 8.09 | – | CN1CCN(C(=O)c2cc(-c3cnc4cccc(-c5cc(F)c(CN6CCOCC6)c(F)c5)c4n3)cn2C)CC1 [Example 167, {4-[8-(3,5-Difluoro-4-morpholin-4-ylmethyl-phenyl)-quinoxalin-2-yl]-1-methyl-1H-pyrrol-2-yl}-(4-methyl-piperazin-1-yl)-methanone]
7.59 | 7.77 | > 8.52 | – | O=S1(=O)CCN(Cc2c(F)cc(-c3cccc4ncc(-c5cccc(N6CCNCC6)c5)nc34)cc2F)CC1 [Example 169, 8-[4-(1,1-Dioxido-thiomorpholin-4-ylmethyl)-3,5-difluoro-phenyl]-2-(3-piperazin-1-yl-phenyl)-quinoxaline]
5.70 | 6.36 | 7.15 | – | CC(C)(O)C#Cc1cnc2cccc(-c3cc(F)c(CN4CCS(=O)(=O)CC4)c(F)c3)c2n1 [Example 171, 4-{8-[4-(1,1-Dioxido-thiomorpholin-4-ylmethyl)-3,5-difluoro-phenyl]-quinoxalin-2-yl}-2-methyl-but-3-yn-2-ol]
